# Where a name gives a salt, the structure may show the parent alone.
row,melting point,SMILES
1,53 to 56 °C,CCN(CC)CCc1c[nH]c2ccc(NS(=O)(=O)c3sc4ccc(Cl)cc4c3C)cc12 [24e]
2,170 to 173 °C,"CCN(CC)CCc1c[nH]c2ccc(NS(=O)(=O)c3sc4ccc(Cl)cc4c3C)cc12 [Example 1c, N-[3-(2-diethylaminoethyl)-1H-indol-5-yl]-5-chloro-3-methylbenzo[b]thiophene-2-sulphonamide]"
3,78 to 80 °C,"Cc1c(S(=O)(=O)Nc2cccc3c2ccn3CCN(C)C)sc2ccc(Cl)cc12 [Example 1d, N-[1-(2-dimethylaminoethyl)-1H-indole-4-yl]-5-chloro-3-methyl-benzo[b]thiophene-2-sulfonamide]"
4,71 to 73 °C,"Cc1c(S(=O)(=O)Nc2ccc3c(ccn3CCN(C)C)c2)sc2ccc(Cl)cc12 [Example 1e, N-[1-(2-dimethylaminoethyl)-1H-indole-5-yl]-5-chloro-3-methylbenzo[b]thiophene-2-sulfonamide]"
5,155 to 160 °C,"CN1CC=C(c2cn(S(=O)(=O)C3CCCCC3)c3ccc([N+](=O)[O-])cc23)CC1 [Example 1h, 1-Cyclohexanesulfonyl-3-(1-methyl-1,2,3,6-tetrahydropyridine-4-yl)-5-nitro-1H-indole]"
6,140 to 143 °C,"CN(C)CCn1ccc2ccc(NS(=O)(=O)c3ccc4ccccc4c3)cc21 [Example 2f, N-[1-(2-Dimethylaminoethyl)-1H-indol-6-yl]-naphthalene-2-sulfonamide]"
7,57 to 65 °C,"Cc1c(S(=O)(=O)Nc2cccc3ccn(CCN(C)C)c23)sc2ccc(Cl)cc12 [Example 2g, N-[1-(2-dimethylaminoethyl)-1H-indole-7-yl]-5-chloro-3-methylbenzo[b]thiophene-2-sulfonamide]"
8,88 to 90 °C,"CN1CC=C(c2cn(S(=O)(=O)C3CCCCC3)c3ccc(Cl)cc23)CC1 [Example 2h, 5-Chloro-1-cyclohexanesulfonyl-3-(1-methyl-1,2,3,6-tetrahydropyridine-4-yl)-1H-indole]"
9,255 to 257 °C,"CCN(CC)CCc1c[nH]c2ccc(NS(=O)(=O)c3cccc4ccccc34)cc12.Cl [Example 3c, Hydrochloride N-[3-(2-diethylaminoethyl)-1H-indol-5-yl]naphthalene-1-sulphonamide]"
10,179 to 181 °C,"CN(C)CCn1ccc2cc(NS(=O)(=O)c3cccc4ccccc34)ccc21 [Example 3e, N-[1-(2-dimethylaminoethyl)-1H-indole-5-yl]-naphthalene-1-sulfonamide]"
11,139 to 142 °C,"CN(C)CCn1ccc2ccc(NS(=O)(=O)c3cccc4ccccc34)cc21 [Example 3f, N-[1-(2-Dimethylaminoethyl)-1H-indol-6-yl]-naphthalene-1-sulfonamide]"
12,137 to 140 °C,"CN(C)CCn1ccc2cccc(NS(=O)(=O)c3ccc(-c4ccccc4)cc3)c21 [Example 3g, N-[1-(2-dimethylaminoethyl)-1H-indole-7-yl]-4-phenylbenzenesulfonamide]"
13,75 °C (dec.),"CN1CC=C(c2cn(S(=O)(=O)C3CCCCC3)c3ccc(N)cc23)CC1 [Example 3h, 5-Amino-1-cyclohexanesulfonyl-3-(1-methyl-1,2,3,6-tetrahydropyridine-4-yl)-1H-indole]"
14,168 to 170 °C,"CCN(CC)CCc1c[nH]c2ccc(NS(=O)(=O)c3cc(Cl)cc(Cl)c3)cc12 [Example 4c, N-[3-(2-diethylaminoethyl)-1H-indol-5-yl]-3,5-dichlorobenzenesulphonamide]"
15,137 to 140 °C,"CN(C)CCn1ccc2c(NS(=O)(=O)c3ccc(-c4ccccc4)cc3)cccc21 [Example 4d, N-[1-(2-dimethylaminoethyl)-1H-indole-4-yl]-4 phenylbenzenesulfonamide]"
16,172 to 174 °C,"CN(C)CCn1ccc2cc(NS(=O)(=O)c3cccc4c(Cl)cccc34)ccc21 [Example 4e, N-[1-(2-dimethylaminoethyl)-1H-indole-5-yl]-5-chloronaphthalene-1-sulfonamide]"
17,73 to 76 °C,"CN(C)CCn1ccc2cccc(NS(=O)(=O)c3c(Cl)nc4sccn34)c21 [Example 4g, N-[1-(2-dimethylaminoethyl)-1H-indole-7-yl]-6-chloroimidazo[2,1-b]thiazole-5-sulfonamide]"
18,263 °C (dec.),"Cl.O=S(=O)(C1CCCCC1)n1cc(C2=CCN3CCCC3C2)c2cc(F)ccc21 (stereo not drawn) [Example 4h, 1-Cyclohexanesulfonyl-5-fluoro-3-(1,2,3,5,8,8a-hexahydro-indolizine-7-yl)-1H-indole hydrochloride]"
19,161 to 163 °C,"CCN(CC)CCc1c[nH]c2ccc(NS(=O)(=O)c3ccc(-c4ccccc4)cc3)cc12 [Example 5c, N-[3-(2-diethylaminoethyl)-1H-indol-5-yl]-4-phenylbenzenesulphonamide]"

# Continued, compound first:
row,SMILES,melting point
1,Cc1cccc2c1N(C1CCN(S(=O)(=O)c3cccc(Cl)c3Cl)CC1)C(=O)OC2,184 to 185 °C
2,Cl.O=C1c2ccccc2-c2cc(NC(=O)C(c3ccccc3)N3CCC(N4C(=O)OCc5ccccc54)CC3)ccc21 (stereo not drawn),247 to 249 °C
3,CC(C(=O)Nc1ccc2c(c1)-c1ccccc1C2=O)N1CCC(N2C(=O)OCc3ccccc32)CC1.Cl (stereo not drawn),242 to 252 °C
4,CN(C)CCc1c[nH]c2ccc(NS(=O)(=O)c3cccc4nsnc34)cc12,192 °C
5,Cc1ccc2c(c1)COC(=O)N2C1CCN(CC(=O)Nc2ccc(C3CCCCC3)cc2)CC1,155 to 157 °C
6,CN(C)CCc1c[nH]c2ccc(NS(=O)(=O)c3ccc4c(Cl)cccc4c3)cc12,230 to 240 °C (dec.)
7,Cl.Cn1c2ccccc2c2cc(NC(=O)CN3CCC(N4C(=O)OCc5ccccc54)CC3)ccc21,191 to 193 °C
8,CN(C)CCc1c[nH]c2ccc(NS(=O)(=O)c3ccc(-c4ccccc4)cc3)cc12,184 to 186 °C
9,O=S(=O)(Nc1ccc2[nH]cc(CCN3CCOCC3)c2c1)c1cccc2ccccc12,218 to 220 °C
10,Cl.O=C(CN1CCC(N2C(=O)OCc3ccccc32)CC1)Nc1ccc(Oc2ccccc2)cc1,242 to 248 °C
11,CCN(CC)CCc1c[nH]c2ccc(NS(=O)(=O)c3ccc4ccccc4c3)cc12,134 to 136 °C
12,Cl.O=C(CCN1CCC(N2C(=O)OCc3ccccc32)CC1)Nc1ccc2c(c1)-c1ccccc1C2=O,240 to 242 °C
13,CCCN(CCC)CCc1c[nH]c2ccc(NS(=O)(=O)c3cccc4ccccc34)cc12,76 to 80 °C
14,CCCCN(CCCC)CCc1c[nH]c2ccc(NS(=O)(=O)c3sc4ccc(Cl)cc4c3C)cc12,79 to 80 °C
15,Cl.O=C(CN1CCC(N2C(=O)OCc3cc(Cl)ccc32)CC1)Nc1ccc(Cl)cc1,279 to 282 °C
16,CCCCN(CCCC)CCc1c[nH]c2ccc(NS(=O)(=O)c3cccc4ccccc34)cc12,111 to 113 °C
17,Cc1cccc2c1N(C1CCN(CC(=O)Nc3ccc4c(c3)-c3ccccc3C4=O)CC1)C(=O)OC2.Cl,233 to 236 °C
18,CCN(CC)CCc1c[nH]c2ccc(NS(=O)(=O)c3cccc4c(Cl)cccc34)cc12,154 to 156 °C
19,Cl.O=C(CN1CCC(N2C(=O)OCc3cc(Cl)ccc32)CC1)Nc1ccc2c(c1)-c1ccccc1C2=O,245 to 249 °C
20,CCN(CC)CCc1c[nH]c2ccc(NS(=O)(=O)/C=C/c3ccccc3)cc12,125 to 130 °C
21,Cl.O=C(CN1CCC(N2C(=O)OCc3cc(Cl)ccc32)CC1)Nc1ccc2c(c1)-c1ccccc1C2O (stereo not drawn),219 to 222 °C
22,CCN(CC)CCc1c[nH]c2ccc(NS(=O)(=O)c3c(Cl)nc4sccn34)cc12,197 to 198 °C

row,SMILES,melting point
1,Cc1cccc2c1N(C1CCN(CC(=O)Nc3ccc(C(F)(F)F)cc3)CC1)C(=O)OC2.Cl,264 to 274 °C
2,Cl.O=C(CN1CCC(N2C(=O)OCc3cc(Cl)ccc32)CC1)Nc1ccccc1,265 to 277 °C
3,Cl.N#Cc1ccc(NC(=O)CN2CCC(N3C(=O)OCc4ccccc43)CC2)cc1,268 to 282 °C
4,Cc1cccc2c1N(C1CCN(CC(=O)Nc3ccc(C#N)cc3)CC1)C(=O)OC2.Cl,229 to 234 °C
5,CN(C)CCc1c[nH]c2ccc(NS(=O)(=O)c3ccc4ccccc4c3)cc12,180 to 190 °C
6,Cl.N#Cc1ccc(NC(=O)CN2CCC(N3C(=O)OCc4cc(Cl)ccc43)CC2)cc1,274 to 278 °C
7,O=S(=O)(Nc1ccc2[nH]cc(CCN3CCOCC3)c2c1)c1cccc2cccnc12,234 to 235 °C
8,Cl.O=C(CN1CCC(N2C(=O)OCc3cc(Cl)ccc32)CC1)Nc1ccc(Oc2ccccc2)cc1,262 to 267 °C
9,Cc1cccc2c1N(C1CCN(CC(=O)Nc3ccc(C(=O)c4ccccc4)cc3)CC1)C(=O)OC2.Cl,217 °C
10,Cl.O=C(CN1CCC(N2C(=O)OCc3cc(Cl)ccc32)CC1)Nc1ccc(C(=O)c2ccccc2)cc1,256 to 259 °C
11,Cl.O=C(CN1CCC(N2C(=O)OCc3cc(Cl)ccc32)CC1)Nc1ccccc1C(=O)c1ccccc1,167 to 178 °C
12,Cc1ccc2c(c1)COC(=O)N2C1CCN(CC(=O)Nc2ccc(Oc3ccccc3)cc2)CC1.Cl,234 to 237 °C
13,Cl.O=C(CN1CCC(N2C(=O)OCc3ccccc32)CC1)Nc1ccc2c(c1)-c1ccccc1C2O (stereo not drawn),270 to 273 °C
14,Cc1ccc2c(c1)COC(=O)N2C1CCN(CC(=O)Nc2ccc3c(c2)C(=O)c2ccccc2-3)CC1.Cl,281 to 285 °C
15,Cl.O=C(CN1CCC(N2C(=O)OCc3ccccc32)CC1)Nc1cccc2c1-c1ccccc1C2=O,270 to 273 °C
16,O=C(CN1CCC(N2C(=O)OCc3ccc(Cl)cc32)CC1)Nc1ccc2oc3ccccc3c2c1,237 °C
17,O=C(CN1CCC(N2C(=O)OCc3cc(F)ccc32)CC1)Nc1ccc2c(c1)-c1ccccc1C2=O,237 °C
18,Cl.O=C(CN1CCC(N2C(=O)OCc3ccccc32)CC1)Nc1cccc(C(=O)c2ccccc2)c1,214 to 218 °C
19,CCN(c1ccccc1)c1ccc(NC(=O)CN2CCC(N3C(=O)OCc4ccc(C)cc43)CC2)cc1,199 °C
20,O=C(CN1CCC(N2C(=O)OCc3cccc(Cl)c32)CC1)Nc1ccc2[nH]c3ccccc3c2c1,180 °C
21,O=C(CN1CCC(N2C(=O)OCc3ccccc32)CC1)Nc1ccc2c(c1)CCC2=O,206 to 209 °C
22,CCN(CC)CCc1c[nH]c2ccc(NS(=O)(=O)c3cccc4ccccc34)cc12 (as salt: hydrochloride),255 to 257 °C
